Assays:
[1] = test system: P. falciparum ART-resistant strain F32-ART5; assay: Standard in vitro chemo-sensitivity assay, F32-ART5; format: cell-based; settings: Plasmodium falciparum, F32, 48 h, read-out: Mean ± SEM EC50 values F32-ART5
Protocol: (§1) The Plasmodium falciparum ART-resistant strain F32-ART5 and its tween ART-sensitive strain F32-TEM [33, 41] were cultivated at 37 °C with 5% CO2 in human red blood cells (EFS, French Blood Bank) diluted to 2% hematocrit in RPMI-1640 medium (Biowest, Nuaillé, France) supplemented with 5% human serum (EFS, French Blood Bank), as previously reported.
(§2) The chemosensitivity assay was carried out in 96-well culture plates on synchronized ring-stage parasites at 1% parasitemia obtained after D-sorbitol treatment. The antiplasmodial activities were evaluated using the SYBR Green I method. Parasites were exposed for 48 h to a range of concentrations of the different tested compounds. Each drug concentration was tested in triplicates. Parasite pellets were then washed in 1× PBS prior to lysing red blood cells at −20 °C overnight. Then, the plates were thawed and 100 µL of each well were transferred into a black 96-well plate. Next, 100 µL per well of SYBR Green I (Thermo Fisher) diluted at a final concentration of 2× in lysis buffer (20 mM Tris base pH 7.5, 5 mM EDTA, 0.008% w/v saponin, 0.08% w/v Triton X-100) were added and left to incubate for 1 h at room temperature prior to reading the plates on BioTek FLx800 Microplate Fluorescence Reader (λexcitation = 485 nm, λemission = 528 nm). Relative EC50 values were determined using GraphPad Prism software.

[2] = test system: P. falciparum ART-sensitive strain F32-TEM; assay: Standard in vitro chemo-sensitivity assay, F32-TEM; format: cell-based; settings: Plasmodium falciparum, F32, 48 h, read-out: Mean ± SEM EC50 values F32-TEM
Protocol: as §1, §2

[3] = test system: F32-ART5 and F32-TEM parasites; assay: Recrudescence assay; format: cell-based, Plasmodium falciparum; settings: 48 h exposure; 2.5 µM 3i or 18 µM ART; log-rank Mantel-Cox test
Protocol: Recrudescence assay was performed to evaluate the ability of the F32-ART5 parasites to survive drug exposure comparatively to the F32-TEM parasites. D-sorbitol synchronized ring-stages at 3% parasitemia (2% hematocrit) were exposed to drug for 48 h. After drug exposure, parasite cultures were washed with RPMI-1640 medium and replaced in normal drug-free culture conditions. The time to parasite recrudescence was determined as the time required to reach the 3% initial parasitemia. […] Each experiment was performed for F32-ART5 and F32-TEM and cultivated in parallel in the same conditions to generate paired results. This was carried out at least three times independently. A statistical analysis (log-rank Mantel–Cox test) was carried out on data thanks to a Kaplan–Meier survival analysis (using GraphPad Prism software) considering censored data.
Figure S48. 13C NMR spectrum of 2i in CDCl3, on a Bruker ARX 101 spectrometer
2. […]
3. Studying the effect of (3i) on the liver stage development of P. falciparum Cryopreserved primary human hepatocytes were seeded in 96 well plates with a pre-determined seeding dose that gave a single dense layer of attached hepatocytes. […]
The culture medium with or without drugs was refreshed every 48 hours and two independent plates were studied. […] Plates were subjected to quantification using an automated plate scanner. […]

[4] = test system: Pf3D7 (3D7 chloroquine-sensitive strain); settings: Figure 2; cited from earlier work
[5] = test system: PfFCR-3 (FCR-3 multidrug-resistant strain); design: method as in PMID 28291694; settings: Figure 2; cited from earlier work
HepG2 = settings: Figure 2; cited from earlier work

Structure (SMILES): C[C@@H]1CC[C@H]2[C@@H](C)C(=O)O[C@@H]3O[C@@]4(C)CC[C@@H]1[C@]32OO4 [Artemisinin, reference compound]
- EC50 [1]: 11 ± 3 nM
- EC50 [2]: 19 ± 3 nM
- Recrudescence of F32-ART5 compared with F32-TEM after drug exposure [3]: significant faster

Structure (SMILES): Cc1c(/C=N/Nc2ccnc3cc(Cl)ccc23)[n+]([O-])c2cc(Cl)ccc2[n+]1[O-] [QdNO 19]
- EC50 [4]: 240 nM
- EC50 [5]: 2800 nM
- CC50 (HepG2): > 241000 nM

— publication PMC8400257, “2-Phenoxy-3-Trichloromethylquinoxalines Are Antiplasmodial Derivatives with Activity against the Apicoplast of Plasmodium falciparum” (Pharmaceuticals, 2021)
